Results reported in article PMC7736581, “Activation of the IRE1 RNase through remodeling of the kinase front pocket by ATP-competitive ligands” (Nature Communications, 2020).

Columns and labels:
PKC_epsilon = target: T1, PKC_epsilon (Homo sapiens, UniProt Q02156); assay: biochemical; parameters: Invitrogen kinase panel: Z'Lyte activity (ATP at Km) or LanthaScreen competitive ATP-site binding, percent inhibition
T1 construct: gene PRKCE

IGF1R = IGF1R (Homo sapiens, UniProt P08069); assay: biochemical; parameters: Invitrogen kinase panel: Z'Lyte activity (ATP at Km) or LanthaScreen competitive ATP-site binding, percent inhibition
HIPK2 = HIPK2 (Homo sapiens, UniProt Q9H2X6); assay: biochemical; parameters: Invitrogen kinase panel: Z'Lyte activity (ATP at Km) or LanthaScreen competitive ATP-site binding, percent inhibition
eEF-2K = target: T2, eEF-2K (Homo sapiens, UniProt O00418); assay: biochemical; parameters: Invitrogen kinase panel: Z'Lyte activity (ATP at Km) or LanthaScreen competitive ATP-site binding, percent inhibition
T2 construct: gene EEF2K

CK1_epsilon1 = target: T3, CK1_epsilon1 (Homo sapiens, UniProt P49674); assay: biochemical; parameters: Invitrogen kinase panel: Z'Lyte activity (ATP at Km) or LanthaScreen competitive ATP-site binding, percent inhibition
T3 construct: gene CSNK1E; epsilon 1

IRR = target: T4, IRR (Homo sapiens, UniProt P14616); assay: biochemical; parameters: Invitrogen kinase panel: Z'Lyte activity (ATP at Km) or LanthaScreen competitive ATP-site binding, percent inhibition
T4 construct: gene INSRR

Flt1 = Flt1 (Homo sapiens, UniProt P17948); assay: biochemical; parameters: Invitrogen kinase panel: Z'Lyte activity (ATP at Km) or LanthaScreen competitive ATP-site binding, percent inhibition
DDR1 = DDR1 (Homo sapiens, UniProt Q08345); assay: biochemical; parameters: Invitrogen kinase panel: Z'Lyte activity (ATP at Km) or LanthaScreen competitive ATP-site binding, percent inhibition
WEE1 = WEE1 (Homo sapiens, UniProt P30291); assay: biochemical; parameters: Invitrogen kinase panel: Z'Lyte activity (ATP at Km) or LanthaScreen competitive ATP-site binding, percent inhibition
HIPK1 = HIPK1 (Homo sapiens, UniProt Q86Z02); assay: biochemical; parameters: Invitrogen kinase panel: Z'Lyte activity (ATP at Km) or LanthaScreen competitive ATP-site binding, percent inhibition
Blk = Blk (Homo sapiens, UniProt P51451); assay: biochemical; parameters: Invitrogen kinase panel: Z'Lyte activity (ATP at Km) or LanthaScreen competitive ATP-site binding, percent inhibition
SGK2 = SGK2 (Homo sapiens, UniProt Q9HBY8); assay: biochemical; parameters: Invitrogen kinase panel: Z'Lyte activity (ATP at Km) or LanthaScreen competitive ATP-site binding, percent inhibition
IRE2 = target: T5, IRE2 (Homo sapiens, UniProt Q76MJ5); assay: biochemical; parameters: Invitrogen kinase panel: Z'Lyte activity (ATP at Km) or LanthaScreen competitive ATP-site binding, percent inhibition
T5 construct: gene ERN2

CDK9/cyclinT1 = CDK9/cyclinT1 (Homo sapiens, UniProt P50750); assay: biochemical; parameters: Invitrogen kinase panel: Z'Lyte activity (ATP at Km) or LanthaScreen competitive ATP-site binding, percent inhibition
GSK3_alpha = target: T6, GSK3_alpha (Homo sapiens, UniProt P49840); assay: biochemical; parameters: Invitrogen kinase panel: Z'Lyte activity (ATP at Km) or LanthaScreen competitive ATP-site binding, percent inhibition
T6 construct: gene GSK3A

[1] = target: Inositol-Requiring Enzyme 1 (IRE1) (Homo sapiens, UniProt O75460); assay: co-crystal structure ([…] Å); also TR-FRET kinase binding, HX-MS, RNase activation; parameters: gene ERN1; IRE1 KR (G547-L977), unphosphorylated (IRE1-0P)
LTK = LTK (Homo sapiens, UniProt P29376); assay: biochemical; parameters: Invitrogen kinase panel: Z'Lyte activity (ATP at Km) or LanthaScreen competitive ATP-site binding, percent inhibition
Text: (§1) We set out to identify allosteric activators of IRE1 RNase by screening internal compound libraries for binding to the kinase, using a published ATP-competitive TR-FRET assay. We then tested kinase binders to assess RNase modulation in an IRE1-specific kinetic RNA cleavage assay that uses the cytoplasmic construct IRE1-LKR (Q470-L977) (Supplementary Fig. 1a). […] Next, we tested these compounds in KMS-11 multiple myeloma cells, known to express functional IRE1 and strongly depend on the IRE1 pathway due to hyper-production of immunoglobulins in the ER[31]. We measured mRNA levels of XBP1s and the well-established RIDD target DGAT2[22] (Fig. 1c and Supplementary Fig. 1c, respectively) using a branched DNA (bDNA) assay. […] Importantly, neither G-9807 nor G-1749 inhibit PERK (Supplementary Table 1).

STK33 = STK33 (Homo sapiens, UniProt Q9BYT3); assay: biochemical; parameters: Invitrogen kinase panel: Z'Lyte activity (ATP at Km) or LanthaScreen competitive ATP-site binding, percent inhibition
Text: as §1

Fyn = Fyn (Homo sapiens, UniProt P06241); assay: biochemical; parameters: Invitrogen kinase panel: Z'Lyte activity (ATP at Km) or LanthaScreen competitive ATP-site binding, percent inhibition
GCK = target: T7, GCK (Homo sapiens, UniProt Q12851); assay: biochemical; parameters: Invitrogen kinase panel: Z'Lyte activity (ATP at Km) or LanthaScreen competitive ATP-site binding, percent inhibition
T7 construct: gene MAP4K2

PKC_iota = target: T8, PKC_iota (Homo sapiens, UniProt P41743); assay: biochemical; parameters: Invitrogen kinase panel: Z'Lyte activity (ATP at Km) or LanthaScreen competitive ATP-site binding, percent inhibition
T8 construct: gene PRKCI

T6 sequence (P49840 whole entry): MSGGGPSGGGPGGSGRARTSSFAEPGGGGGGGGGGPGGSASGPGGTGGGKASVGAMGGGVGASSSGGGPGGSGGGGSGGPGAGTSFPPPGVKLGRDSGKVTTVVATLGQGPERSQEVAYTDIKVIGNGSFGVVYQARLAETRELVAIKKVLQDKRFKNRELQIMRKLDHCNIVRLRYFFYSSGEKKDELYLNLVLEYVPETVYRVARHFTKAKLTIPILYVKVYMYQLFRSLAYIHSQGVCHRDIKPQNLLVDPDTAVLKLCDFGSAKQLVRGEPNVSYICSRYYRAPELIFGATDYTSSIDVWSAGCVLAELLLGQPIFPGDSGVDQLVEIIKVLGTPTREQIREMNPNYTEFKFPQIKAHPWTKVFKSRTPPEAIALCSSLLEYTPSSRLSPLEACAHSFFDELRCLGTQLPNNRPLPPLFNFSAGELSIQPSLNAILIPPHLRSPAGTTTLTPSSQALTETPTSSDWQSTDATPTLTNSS
T1 sequence (Q02156 whole entry): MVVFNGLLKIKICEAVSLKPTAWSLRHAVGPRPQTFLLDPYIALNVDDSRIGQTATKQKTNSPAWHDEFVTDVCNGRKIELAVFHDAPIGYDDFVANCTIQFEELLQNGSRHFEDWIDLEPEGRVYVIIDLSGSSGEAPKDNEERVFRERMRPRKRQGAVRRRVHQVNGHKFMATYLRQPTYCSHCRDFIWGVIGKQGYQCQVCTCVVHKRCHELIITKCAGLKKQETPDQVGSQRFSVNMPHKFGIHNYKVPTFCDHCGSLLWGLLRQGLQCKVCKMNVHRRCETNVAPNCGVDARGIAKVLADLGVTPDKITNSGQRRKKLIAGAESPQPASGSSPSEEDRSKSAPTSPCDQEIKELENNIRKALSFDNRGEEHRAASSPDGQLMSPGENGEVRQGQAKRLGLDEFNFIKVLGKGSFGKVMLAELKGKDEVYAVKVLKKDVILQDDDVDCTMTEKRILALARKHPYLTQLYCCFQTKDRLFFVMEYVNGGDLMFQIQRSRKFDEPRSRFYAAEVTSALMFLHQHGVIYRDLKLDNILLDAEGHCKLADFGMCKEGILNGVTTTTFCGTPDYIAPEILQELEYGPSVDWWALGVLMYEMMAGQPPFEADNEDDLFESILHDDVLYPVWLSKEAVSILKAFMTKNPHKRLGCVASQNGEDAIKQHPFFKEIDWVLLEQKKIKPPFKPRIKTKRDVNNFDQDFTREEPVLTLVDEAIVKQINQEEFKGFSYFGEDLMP
Chain of SGK2 (Q9HBY8 whole entry): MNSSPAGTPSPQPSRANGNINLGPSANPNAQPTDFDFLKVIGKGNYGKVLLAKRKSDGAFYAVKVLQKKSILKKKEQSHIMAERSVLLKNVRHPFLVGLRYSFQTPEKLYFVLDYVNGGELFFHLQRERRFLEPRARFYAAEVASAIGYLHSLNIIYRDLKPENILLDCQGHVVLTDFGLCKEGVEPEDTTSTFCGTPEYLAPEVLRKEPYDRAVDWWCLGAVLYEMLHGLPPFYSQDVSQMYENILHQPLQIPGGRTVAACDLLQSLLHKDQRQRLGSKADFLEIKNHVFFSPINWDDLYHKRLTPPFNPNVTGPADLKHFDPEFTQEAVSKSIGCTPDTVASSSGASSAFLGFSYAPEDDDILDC
T2 sequence (O00418 whole entry): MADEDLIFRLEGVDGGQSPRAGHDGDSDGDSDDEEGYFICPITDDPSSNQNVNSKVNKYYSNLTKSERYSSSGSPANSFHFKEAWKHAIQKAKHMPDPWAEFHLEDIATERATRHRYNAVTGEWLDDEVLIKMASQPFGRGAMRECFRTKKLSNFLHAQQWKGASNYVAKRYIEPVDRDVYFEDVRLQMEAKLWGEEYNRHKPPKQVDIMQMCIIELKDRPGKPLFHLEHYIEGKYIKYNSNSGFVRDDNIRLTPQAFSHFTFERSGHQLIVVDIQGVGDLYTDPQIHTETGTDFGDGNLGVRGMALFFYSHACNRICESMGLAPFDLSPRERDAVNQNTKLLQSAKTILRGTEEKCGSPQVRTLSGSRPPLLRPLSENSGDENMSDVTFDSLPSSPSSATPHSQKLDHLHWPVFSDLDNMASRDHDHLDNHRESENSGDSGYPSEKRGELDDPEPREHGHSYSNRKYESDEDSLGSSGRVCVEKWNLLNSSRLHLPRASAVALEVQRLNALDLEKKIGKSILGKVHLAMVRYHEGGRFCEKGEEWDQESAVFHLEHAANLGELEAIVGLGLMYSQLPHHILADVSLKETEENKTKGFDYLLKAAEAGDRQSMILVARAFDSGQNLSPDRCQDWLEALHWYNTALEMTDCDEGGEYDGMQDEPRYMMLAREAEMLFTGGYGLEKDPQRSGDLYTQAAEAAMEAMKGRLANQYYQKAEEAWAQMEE
Chain of Blk (P51451 whole entry): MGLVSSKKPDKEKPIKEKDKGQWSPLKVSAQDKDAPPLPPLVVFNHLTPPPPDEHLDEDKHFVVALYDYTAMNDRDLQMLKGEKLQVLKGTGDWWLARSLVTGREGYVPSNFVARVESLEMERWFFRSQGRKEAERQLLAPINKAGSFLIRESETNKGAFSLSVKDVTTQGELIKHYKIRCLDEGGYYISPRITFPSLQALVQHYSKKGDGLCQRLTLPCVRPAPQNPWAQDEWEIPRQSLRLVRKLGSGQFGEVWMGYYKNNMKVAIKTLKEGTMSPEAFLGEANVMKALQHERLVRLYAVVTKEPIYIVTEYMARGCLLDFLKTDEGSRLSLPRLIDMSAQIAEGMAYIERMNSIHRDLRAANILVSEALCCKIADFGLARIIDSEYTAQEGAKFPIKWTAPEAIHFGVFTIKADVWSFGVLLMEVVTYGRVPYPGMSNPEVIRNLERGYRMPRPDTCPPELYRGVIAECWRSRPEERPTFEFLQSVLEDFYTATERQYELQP
Chain of Flt1 (P17948 whole entry): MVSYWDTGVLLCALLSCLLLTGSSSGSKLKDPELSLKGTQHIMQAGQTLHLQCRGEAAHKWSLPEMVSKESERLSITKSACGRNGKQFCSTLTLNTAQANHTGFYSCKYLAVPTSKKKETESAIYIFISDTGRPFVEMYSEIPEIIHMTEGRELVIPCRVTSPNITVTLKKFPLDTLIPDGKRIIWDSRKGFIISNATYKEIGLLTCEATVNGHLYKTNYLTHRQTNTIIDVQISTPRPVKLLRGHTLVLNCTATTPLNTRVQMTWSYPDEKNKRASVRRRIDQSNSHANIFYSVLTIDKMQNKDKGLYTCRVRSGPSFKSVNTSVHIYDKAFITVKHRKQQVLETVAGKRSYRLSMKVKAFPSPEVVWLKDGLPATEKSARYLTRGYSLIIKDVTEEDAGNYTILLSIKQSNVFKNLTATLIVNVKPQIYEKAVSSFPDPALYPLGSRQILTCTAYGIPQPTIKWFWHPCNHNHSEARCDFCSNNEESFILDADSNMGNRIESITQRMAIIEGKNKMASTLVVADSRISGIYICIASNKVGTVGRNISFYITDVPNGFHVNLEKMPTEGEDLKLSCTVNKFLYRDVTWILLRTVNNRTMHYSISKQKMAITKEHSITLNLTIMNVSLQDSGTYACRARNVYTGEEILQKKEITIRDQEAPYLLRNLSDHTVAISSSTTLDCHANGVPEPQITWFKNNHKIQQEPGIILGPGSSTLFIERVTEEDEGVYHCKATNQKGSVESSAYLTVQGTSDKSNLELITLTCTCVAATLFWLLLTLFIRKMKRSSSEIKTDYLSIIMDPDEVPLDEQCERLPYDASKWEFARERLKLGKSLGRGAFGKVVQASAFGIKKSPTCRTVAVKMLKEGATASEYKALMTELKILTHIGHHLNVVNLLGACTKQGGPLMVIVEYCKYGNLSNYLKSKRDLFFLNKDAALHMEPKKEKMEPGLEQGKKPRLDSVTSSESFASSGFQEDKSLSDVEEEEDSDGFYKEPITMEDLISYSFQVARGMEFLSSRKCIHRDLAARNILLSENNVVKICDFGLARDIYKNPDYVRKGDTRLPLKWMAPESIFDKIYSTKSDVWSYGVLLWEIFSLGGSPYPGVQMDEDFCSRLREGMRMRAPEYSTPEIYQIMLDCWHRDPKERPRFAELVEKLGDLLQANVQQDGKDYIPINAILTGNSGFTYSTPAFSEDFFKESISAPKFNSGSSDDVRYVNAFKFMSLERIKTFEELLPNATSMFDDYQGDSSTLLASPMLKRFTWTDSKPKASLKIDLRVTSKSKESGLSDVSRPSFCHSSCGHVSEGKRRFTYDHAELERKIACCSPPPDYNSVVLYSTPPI
Chain of WEE1 (P30291 whole entry): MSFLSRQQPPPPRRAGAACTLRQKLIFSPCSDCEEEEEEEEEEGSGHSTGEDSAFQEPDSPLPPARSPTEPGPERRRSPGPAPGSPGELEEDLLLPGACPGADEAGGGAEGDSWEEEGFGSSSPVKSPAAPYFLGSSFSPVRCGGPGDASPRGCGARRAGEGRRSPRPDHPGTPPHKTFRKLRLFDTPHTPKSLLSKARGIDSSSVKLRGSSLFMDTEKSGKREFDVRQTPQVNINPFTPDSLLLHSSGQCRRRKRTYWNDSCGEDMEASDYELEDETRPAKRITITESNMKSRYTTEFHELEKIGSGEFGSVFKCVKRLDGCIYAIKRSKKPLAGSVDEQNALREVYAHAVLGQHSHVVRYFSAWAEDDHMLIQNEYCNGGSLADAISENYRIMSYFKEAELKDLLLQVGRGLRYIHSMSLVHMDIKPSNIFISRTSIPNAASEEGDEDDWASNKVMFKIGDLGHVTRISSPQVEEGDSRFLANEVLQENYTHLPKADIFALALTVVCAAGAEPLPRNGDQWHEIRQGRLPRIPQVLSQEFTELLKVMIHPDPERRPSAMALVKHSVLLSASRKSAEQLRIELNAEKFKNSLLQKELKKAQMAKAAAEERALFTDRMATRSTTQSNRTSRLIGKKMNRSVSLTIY

Row | SMILES | inhibition at 1 µM (PKC_epsilon) [%] | inhibition at 1 µM (IGF1R) [%] | inhibition at 1 µM (HIPK2) [%] | inhibition at 1 µM (eEF-2K) [%] | inhibition at 1 µM (CK1_epsilon1) [%] | inhibition at 1 µM (IRR) [%] | inhibition at 1 µM (Flt1) [%] | inhibition at 1 µM (DDR1) [%] | inhibition at 1 µM (WEE1) [%] | inhibition at 1 µM (HIPK1) [%] | inhibition at 1 µM (Blk) [%] | inhibition at 1 µM (SGK2) [%] | inhibition at 1 µM (IRE2) [%] | inhibition at 1 µM (CDK9/cyclinT1) [%] | inhibition at 1 µM (GSK3_alpha) [%] | inhibition at 1 µM (LTK) [%] | inhibition at 1 µM (STK33) [%] | also measured
1 | CCOC(=O)Nc1cccc2c(Oc3ncccc3-c3ccnc(N[C@H]4CCCNC4)n3)c(C)ccc12 [G-1749] | 14.5 | 6.5 | 3 | 5 | 37 | -0.5 | -1 | 46 | -5 | 1 | 10 | 3.5 | 9.5 | 29 | 2.5 | 1 | -4 | IC50 [1]: low-nanomolar
2 | CC#CC(=O)Nc1cccc2c(Oc3ncccc3-c3ccnc(N[C@H]4CCCNC4)n3)c(C)ccc12 [G-7658] | 9.5 | 5.5 | 2.5 | 5 | 36 | 0 | -1.5 | 29 | -0.5 | 0.5 | 7.5 | 1.5 | 5.5 | 35 | 10.5 | -4.5 | -3.5 | 
3 | O=c1cc(-c2n[nH]c3ncc(-c4c(F)cccc4F)cc23)nc(N2CCC(O)CC2)[nH]1 [G-9807] |  |  |  |  |  |  |  |  |  |  |  |  |  |  |  |  |  | inhibition at 1 µM (Fyn): 76.2%; inhibition at 1 µM (GCK): 95.7%; inhibition at 1 µM (PKC_iota): 46.6%
